Values after ≈ are worked out from the molar mass of the structure shown.

For test [1], the system named is Blastomyces dermatidis D40. Description: In vitro antifungal activity, serial agar dilution method (Table 1). Format: cell-based. The settings on record: Blastomyces, D40, 40 h, pH 7, read-out: MIC, Blastomyces dermatidis D40. As to the method: (§1) The inoculum size was adjusted to 10⁶ cells/ml, and a volume of approximately 0.003 ml of fungal suspension was applied to the surface of the antibiotic containing agar plates with a multiinoculator. After incubation, the lowest concentration of antibiotic causing virtually complete inhibition of fungal growth was determined as the minimum inhibitory concentration (MIC). Table 1. [table]
(In agar dilution, organisms are placed on agar that contains the substance at set levels.)

Test [2] concerns Petriellidium boydii IFO8078. Described as above. Format: cell-based. The following applies: Scedosporium boydii, IFO8078; Sabouraud dextrose agar (pH 7.0); 28°C for 40 hours. On the procedure: as §1
For the next test, the system named is Candida albicans IAM4888. The description is as above. The following applies: Candida albicans, IAM4888; Sabouraud dextrose agar (pH 7.0); 28°C for 40 hours. Format: cell-based. On the procedure: as §1
Test [3] deals with Trichophyton mentagrophytes D155. Described as above. The class given is cell-based. The settings on record: Trichophyton mentagrophytes, D155; Sabouraud dextrose agar (pH 7.0); 28°C for 40 hours. As to the method: as §1
Test [4] deals with Trichophyton mentagrophytes #4329. Described as above. The following applies: Trichophyton mentagrophytes; Sabouraud dextrose agar (pH 7.0); 28°C for 40 hours. Format: cell-based. On the procedure:
as §1

The subject of test [5] is Fusarium moniliforme A2284. Described as above. The class given is cell-based. The settings on record: Fusarium verticillioides, A2284; Sabouraud dextrose agar (pH 7.0); 28°C for 40 hours. As to the method:
as §1

The subject of test [6] is Aspergillus fumigatus IAM2530. The test is described as above. The settings on record: Aspergillus fumigatus, IAM2530; Sabouraud dextrose agar (pH 7.0); 28°C for 40 hours. The class given is cell-based. As to the method:
as §1

In test [7] the test system is Cryptococcus neoformans IAM4514. Described as above. The class given is cell-based. The settings on record: Cryptococcus neoformans, IAM4514; Sabouraud dextrose agar (pH 7.0); 28°C for 40 hours. On the procedure: as §1
Test [8] deals with Aspergillus fumigatus IAM2034. The test is described as above. The class given is cell-based. The following applies: Aspergillus fumigatus, IAM2034; Sabouraud dextrose agar (pH 7.0); 28°C for 40 hours. On the procedure: as §1
In test [9] the test system is Cryptococcus neoformans D49. Described as above. The following applies: Cryptococcus neoformans, D49, 40 h, pH 7, read-out: MIC, Cryptococcus neoformans D49. Format: cell-based. As to the method:
as §1

For test [10], the system named is Candida albicans A9540. The description is as above. The class given is cell-based. The settings on record: Candida albicans, A9540; Sabouraud dextrose agar (pH 7.0); 28°C for 40 hours. On the procedure:
as §1

For the next test, the system named is Mucor spinosus IFO5317. The test is described as above. The class given is cell-based. The following applies: Mucor spinosus, IFO5317; Sabouraud dextrose agar (pH 7.0); 28°C for 40 hours. As to the method: as §1
The test system of test [11] is Sprotricosis schenckii IFO8158. Described as above. Format: cell-based. The settings on record: 40 h, pH 7, read-out: MIC, Sprotricosis schenckii IFO8158. As to the method: as §1
In another test the test system is FA21436. The test is described as above. The following applies: 40 h, pH 7, read-out: MIC, Asoergukkys flavus FA21436. Format: cell-based, Asoergukkys flavus. On the procedure:
as §1

In test [12] the test system is Cryptococcus neoformans A15053. Briefly: In vitro antifungal activity, serial agar dilution method (Table 1a). Format: cell-based. The settings on record: A15053, YM agar (pH 7.0, Difco), 30°C for 2 days (yeast) or 4 days (filamentous fungi), read-out: MICs, Cryptococcus neoformans A15053. As to the method: (§2) The inoculum size was adjusted to 10⁶ cells/ml, and a volume of approximately 0.003 ml of fungal suspension was applied to the surface of the antibiotic containing agar plates with a multiinoculator. After incubation, the lowest concentration of antibiotic causing virtually complete inhibition of fungal growth was determined as the minimum inhibitory concentration (MIC).

Test [13] has as its system Microsporum gypseum WW1107. The test is described as above. Format: cell-based. The settings on record: Nannizzia gypsea, YM agar (pH 7.0, Difco), 30°C for 2 days (yeast) or 4 days (filamentous fungi), read-out: MICs, Microsporum gypseum WW1107. On the procedure:
as §2

Test [14] has as its system Saccharomyces cerevisiae A25803. Described as above. The settings on record: YM agar (pH 7.0, Difco), 30°C for 2 days (yeast) or 4 days (filamentous fungi), read-out: MICs, Saccharomyces cerevisiae A25803. The class given is cell-based. On the procedure: as §2
For test [15], the system named is Candida tropicalis A25809. The description is as above. Format: cell-based. The following applies: YM agar (pH 7.0, Difco), 30°C for 2 days (yeast) or 4 days (filamentous fungi), read-out: MICs, Candida tropicalis A25809. On the procedure:
as §2

Test [16] has as its system Candida tropicalis A25812. The description is as above. The class given is cell-based. The following applies: A25812, YM agar (pH 7.0, Difco), 30°C for 2 days (yeast) or 4 days (filamentous fungi), read-out: MICs, Candida tropicalis A25812. On the procedure: as §2
Test [17] concerns Microsporum canis WW10218. Described as above. The class given is cell-based. The following applies: WW10218, pH 7, read-out: MICs, Microsporum canis WW10218. As to the method:
as §2

Another test relates to Candida albicans A25578. The test is described as above. Format: cell-based. The following applies: A25578, YM agar (pH 7.0, Difco), 30°C for 2 days (yeast) or 4 days (filamentous fungi), read-out: MICs, Candida albicans A25578. As to the method:
as §2

Test [18] concerns Trichophyton mentagrophytes A26771. Described as above. The class given is cell-based. The settings on record: A26771, YM agar (pH 7.0, Difco), 30°C for 2 days (yeast) or 4 days (filamentous fungi), read-out: MICs, Trichophyton mentagrophytes A26771. As to the method: as §2
For test [19], the system named is Trichophyton rubrum A26761. The description is as above. The class given is cell-based. The following applies: A26761, pH 7, read-out: MICs, Trichophyton rubrum A26761. On the procedure: as §2
The test system of test [20] is Candida albicans A9540. The description is as above. The following applies: A9540, YM agar (pH 7.0, Difco), 30°C for 2 days (yeast) or 4 days (filamentous fungi), read-out: MICs, Candida albicans A9540. The class given is cell-based. As to the method:
as §2

In test [21] the test system is Candida pseudotropicalis A25802. The test is described as above. Format: cell-based. The settings on record: Kluyveromyces marxianus, YM agar (pH 7.0, Difco), 30°C for 2 days (yeast) or 4 days (filamentous fungi), read-out: MICs, Candida pseudotropicalis A25802. As to the method:
as §2

For test [22], the system named is Candida paratropicalis A25825. Described as above. Format: cell-based. The following applies: YM agar (pH 7.0, Difco); 30°C for 2 days (yeast) or 4 days (filamentous fungi); read-out: MICs, Candida paratropicalis A25825. On the procedure: as §2

With `COc1cc(O)c2c(c1)C(=O)c1c(cc3c(c1O)-c1c(cc(C)c(C(=O)N[C@H](C)C(=O)O)c1O)[C@H](O[C@@H]1O[C@H](C)[C@H](N(C)C/C=C/C(=O)O)[C@H](O[C@@H]4OC[C@@H](O)[C@H](O)[C@H]4O)[C@H]1O)[C@H]3O)C2=O` [Ex. 13, N-(trans-3-carboxy-2-propenyl) pradimicin A], the MIC in test [1] is more than 100 µg/mL; in test [2] it was more than 100 µg/mL; in the test on Candida albicans IAM4888, 50 µg/mL (≈ 54.1 µM); in [3], more than 100 µg/mL; in test [4] it was more than 100 µg/mL; in test [5] it was more than 100 µg/mL. In addition, the MIC was 100 µg/mL (≈ 108 µM) in test [6]; 25 µg/mL (≈ 27 µM) in [7]; 100 µg/mL (≈ 108 µM) in test [8]; 50 µg/mL (≈ 54.1 µM) in test [9]; 100 µg/mL (≈ 108 µM) in the test on Candida albicans A9540 [10]; more than 100 µg/mL in the test with Mucor spinosus IFO5317. The MIC (in [11]; in the test on FA21436) was 100 µg/mL (≈ 108 µM) each time.
As for `COc1cc(O)c2c(c1)C(=O)c1c(cc3c(c1O)-c1c(cc(C)c(C(=O)N[C@H](C)C(=O)O)c1O)[C@H](O[C@@H]1O[C@H](C)[C@H](N(C)C(=O)CN(C)C)[C@H](O[C@@H]4OC[C@@H](O)[C@H](O)[C@H]4O)[C@H]1O)[C@H]3O)C2=O` [Ex. 16, N-(N,N-Dimethylglycyl) pradimicin A], the MIC was 50 µg/mL (≈ 54 µM) in test [1]; more than 50 µg/mL in [2]; 6.3 µg/mL (≈ 6.8 µM) with Candida albicans IAM4888; 6.3 µg/mL (≈ 6.8 µM) in test [3]; 6.3 µg/mL (≈ 6.8 µM) in [4]; more than 50 µg/mL in [5]. The MIC in test [6] was 12.5 µg/mL (≈ 13.5 µM); in [7], 3.1 µg/mL (≈ 3.35 µM); in [8], 12.5 µg/mL (≈ 13.5 µM); in test [9] it was 3.4 µg/mL (≈ 3.67 µM); against Candida albicans A9540 [10] it was 6.3 µg/mL (≈ 6.8 µM); in the test on Mucor spinosus IFO5317 it was more than 50 µg/mL. Further, the MIC was 6.3 µg/mL (≈ 6.8 µM) in [11] and more than 50 µg/mL in the test with FA21436.
With `COc1cc(O)c2c(c1)C(=O)c1c(cc3c(c1O)-c1c(cc(C)c(C(=O)N[C@H](C)C(=O)O)c1O)[C@H](O[C@@H]1O[C@H](C)[C@H](N(C)C(N)=O)[C@H](O)[C@H]1O)[C@H]3O)C2=O` [Ex. 17, N-carbamyl pradimicin B], the MIC was 6.3 µg/mL (≈ 8.38 µM) in test [12]; 25 µg/mL (≈ 33.3 µM) in [13]; 1.6 µg/mL (≈ 2.13 µM) in test [14]; 1.6 µg/mL (≈ 2.13 µM) in [15]; 6.3 µg/mL (≈ 8.38 µM) in test [16]; 25 µg/mL (≈ 33.3 µM) in test [17]. Further, the MIC in the test with Candida albicans A25578 was determined as 3.2 µg/mL (≈ 4.26 µM); in [18] it was 25 µg/mL (≈ 33.3 µM); in test [19] it was 25 µg/mL (≈ 33.3 µM); in the test on Candida albicans A9540 [20] it was 6.3 µg/mL (≈ 8.38 µM); in test [21] it was 1.6 µg/mL (≈ 2.13 µM); in test [22], 6.3 µg/mL (≈ 8.38 µM).

The values are drawn from patent EP0428132A1, “Pradimicin derivatives” (Bristol-Myers Squibb Company, priority 1989, dated 1991).
